Ki and Km/Ki data for one compound are collected here from patent publication US10077436B2, “Beta-glucosidase enzymes for increased biomass saccharification” (Edeniq, Inc., priority 2013, dated 2018).

The test concerns the target T1, Aspergillus niger beta-glucosidase, wild type, yEdQ745-BG (CAB75696.1, SEQ ID NO:2) (Aspergillus niger, UniProt Q9P8F4).
T1 construct: strain yEdQ745
T1 sequence (Q9P8F4 20-860): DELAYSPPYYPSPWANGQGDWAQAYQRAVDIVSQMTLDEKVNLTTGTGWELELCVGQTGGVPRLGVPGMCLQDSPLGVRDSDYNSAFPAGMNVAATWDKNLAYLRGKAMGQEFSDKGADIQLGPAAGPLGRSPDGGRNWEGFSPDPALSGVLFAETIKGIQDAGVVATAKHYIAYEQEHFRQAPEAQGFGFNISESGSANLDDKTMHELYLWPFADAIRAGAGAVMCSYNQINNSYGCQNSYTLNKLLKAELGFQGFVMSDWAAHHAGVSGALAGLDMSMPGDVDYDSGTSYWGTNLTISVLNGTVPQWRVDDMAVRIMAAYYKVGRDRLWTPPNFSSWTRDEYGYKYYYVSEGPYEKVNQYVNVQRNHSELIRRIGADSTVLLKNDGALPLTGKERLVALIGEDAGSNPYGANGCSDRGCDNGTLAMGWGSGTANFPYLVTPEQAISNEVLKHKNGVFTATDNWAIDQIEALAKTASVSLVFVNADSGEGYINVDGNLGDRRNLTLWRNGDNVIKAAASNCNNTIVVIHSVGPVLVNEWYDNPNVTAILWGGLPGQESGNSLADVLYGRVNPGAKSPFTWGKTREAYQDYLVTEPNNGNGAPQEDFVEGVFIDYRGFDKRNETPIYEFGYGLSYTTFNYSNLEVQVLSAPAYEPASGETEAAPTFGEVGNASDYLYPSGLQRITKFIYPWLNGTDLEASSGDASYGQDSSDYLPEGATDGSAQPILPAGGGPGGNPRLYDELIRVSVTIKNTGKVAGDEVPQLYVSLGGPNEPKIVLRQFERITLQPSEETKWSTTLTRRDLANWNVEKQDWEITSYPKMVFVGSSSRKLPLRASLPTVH
In words: BG kinetics, pNPG hydrolysis assay with glucose as competitive inhibitor, yEdQ745-BG. Format: biochemical. An excerpt: Accordingly, in some embodiments, the unmodified form of the beta-glucosidase is a wild-type or a naturally occurring beta-glucosidase, such as, for example, a fungal beta-glucosidase. The full nucleic acid and amino acid sequence for numerous fungal beta-glucosidases are available. The amino acid sequence of A. niger beta-glucosidase is provided as SEQ ID NO:2. Thus, in some embodiments, the unmodified beta-glucosidase is from an Aspergillus species. In some embodiments, the unmodified beta-glucosidase is from a Trichoderma species.
The beta-glucosidase (BG) gene from Aspergillus niger (Accession #CAB75696.1) was integrated into the TR3 yeast background at the T4U3 genomic site.
The BG-expressing strains were subsequently used in corn mash and corn stover simultaneous saccharification and fermentation (SSF) studies using flask scale and pilot plant fermentations. […]
BG activity assay using pNPG is one of the two commonly used standard assays to measure BG activity, which utilizes hydrolysis of p-nitrophenyl-β-D-glucopyranoside (pNPG) by BG into a yellow colored product, p-nitrophenol (pNP), that has a strong absorbance at 405 nm. […] The reaction was then terminated by adding 100 μL of 0.25 M sodium carbonate, and the amount of pNP produced was determined by measuring absorbance at 405 nm using a predetermined calibration curve. […]

Molecules are shown by their SMILES.

As a reminder, the Ki is a measure of affinity in units of concentration, obtained from inhibition or displacement. Read a low Ki as higher affinity. Consider `OC[C@H]1OC(O)[C@H](O)[C@@H](O)[C@@H]1O` (some centres unmarked) [glucose], for which the Ki came out at 2130 ± 180 µM. The Km/Ki (inhibitor influence, Km for pNPG / Ki for glucose, pH 5.0, 50° C.) came out at 0.30.
